The text below walks through data of patent publication US10947242B2, “[1,2,4]triazolo[1,5and#8208;A]pyrimidine compounds as PDE2 inhibitors” (Janssen Pharmaceutica NV, priority 2016, dated 2021).

The target in assay [1] is T1, Human recombinant PDE2A (hPDE2A) (Homo sapiens, UniProt O00408).
T1 construct: His tag (inferred from metal chelate purification); made in house; host or cells: Sf9 insect cells (baculovirus)
Briefly: In vitro assay PDE2A (SPA, 3H-cGMP hydrolysis). The format is biochemical. The following applies: for IC50: read-out: hPDE2A pIC50 (converted); for Emax: read-out: hPDE2A Emax.

For assay [2], the target named is T2, Human recombinant PDE3A (hPDE3A) (Homo sapiens, UniProt Q14432).
T2 construct: purchased Scottish Biomedical; host or cells: Sf9 insect cells
T2 sequence (Q14432 whole entry): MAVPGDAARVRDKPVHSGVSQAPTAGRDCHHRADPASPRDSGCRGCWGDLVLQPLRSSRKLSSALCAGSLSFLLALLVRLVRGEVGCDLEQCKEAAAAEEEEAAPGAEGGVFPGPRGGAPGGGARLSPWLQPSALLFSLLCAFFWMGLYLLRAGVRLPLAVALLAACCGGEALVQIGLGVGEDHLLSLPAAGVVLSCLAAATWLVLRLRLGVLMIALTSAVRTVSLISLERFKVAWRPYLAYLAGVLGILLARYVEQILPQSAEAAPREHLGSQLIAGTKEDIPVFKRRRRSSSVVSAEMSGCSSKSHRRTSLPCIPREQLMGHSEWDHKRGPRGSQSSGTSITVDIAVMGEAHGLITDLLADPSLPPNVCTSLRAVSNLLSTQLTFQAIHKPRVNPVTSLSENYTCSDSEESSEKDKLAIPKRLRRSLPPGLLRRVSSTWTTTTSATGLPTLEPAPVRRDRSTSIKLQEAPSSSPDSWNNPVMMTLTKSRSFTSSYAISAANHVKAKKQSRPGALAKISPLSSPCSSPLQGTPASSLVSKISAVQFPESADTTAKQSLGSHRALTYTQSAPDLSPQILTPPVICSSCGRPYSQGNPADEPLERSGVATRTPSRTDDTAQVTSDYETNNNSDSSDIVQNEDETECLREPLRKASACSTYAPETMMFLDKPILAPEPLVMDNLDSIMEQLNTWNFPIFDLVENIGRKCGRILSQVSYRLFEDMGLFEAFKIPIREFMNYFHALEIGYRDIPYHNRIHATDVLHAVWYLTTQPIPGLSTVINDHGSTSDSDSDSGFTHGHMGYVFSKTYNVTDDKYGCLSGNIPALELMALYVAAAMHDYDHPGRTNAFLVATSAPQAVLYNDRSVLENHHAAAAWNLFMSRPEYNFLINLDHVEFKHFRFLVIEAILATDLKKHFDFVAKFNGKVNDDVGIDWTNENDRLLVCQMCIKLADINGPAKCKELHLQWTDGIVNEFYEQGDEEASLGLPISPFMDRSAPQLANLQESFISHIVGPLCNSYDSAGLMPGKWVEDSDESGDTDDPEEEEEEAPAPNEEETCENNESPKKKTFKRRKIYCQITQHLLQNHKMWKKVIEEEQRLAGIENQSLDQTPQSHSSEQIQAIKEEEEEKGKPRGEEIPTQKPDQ
Briefly: In vitro assay PDE3A (SPA, 3H-cAMP hydrolysis).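 Further: the method names PDE3A and the table heading PDE3B.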 The format is biochemical. In outline: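 Human PDE3A, cloned from brain, as partially purified Sf9 lysate. Substrate 0.4 μM cAMP plus [3H]-cAMP (2.4 μCi/ml final) in 50 mM Tris pH 7.8, 8.3 mM MgCl2, 1.7 mM EGTA, 60 min at room temperature, 1% DMSO final. Hydrolysis read by SPA scintillation counting against no-enzyme blanks and DMSO controls.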

The target in the next assay is T3, PDE2A (Rattus norvegicus, UniProt Q01062).
T3 construct: Twenty μm-thick striatal sections were cut; from tissue; host or cells: rat brain, striatal sections
T3 sequence (Q01062 1-928): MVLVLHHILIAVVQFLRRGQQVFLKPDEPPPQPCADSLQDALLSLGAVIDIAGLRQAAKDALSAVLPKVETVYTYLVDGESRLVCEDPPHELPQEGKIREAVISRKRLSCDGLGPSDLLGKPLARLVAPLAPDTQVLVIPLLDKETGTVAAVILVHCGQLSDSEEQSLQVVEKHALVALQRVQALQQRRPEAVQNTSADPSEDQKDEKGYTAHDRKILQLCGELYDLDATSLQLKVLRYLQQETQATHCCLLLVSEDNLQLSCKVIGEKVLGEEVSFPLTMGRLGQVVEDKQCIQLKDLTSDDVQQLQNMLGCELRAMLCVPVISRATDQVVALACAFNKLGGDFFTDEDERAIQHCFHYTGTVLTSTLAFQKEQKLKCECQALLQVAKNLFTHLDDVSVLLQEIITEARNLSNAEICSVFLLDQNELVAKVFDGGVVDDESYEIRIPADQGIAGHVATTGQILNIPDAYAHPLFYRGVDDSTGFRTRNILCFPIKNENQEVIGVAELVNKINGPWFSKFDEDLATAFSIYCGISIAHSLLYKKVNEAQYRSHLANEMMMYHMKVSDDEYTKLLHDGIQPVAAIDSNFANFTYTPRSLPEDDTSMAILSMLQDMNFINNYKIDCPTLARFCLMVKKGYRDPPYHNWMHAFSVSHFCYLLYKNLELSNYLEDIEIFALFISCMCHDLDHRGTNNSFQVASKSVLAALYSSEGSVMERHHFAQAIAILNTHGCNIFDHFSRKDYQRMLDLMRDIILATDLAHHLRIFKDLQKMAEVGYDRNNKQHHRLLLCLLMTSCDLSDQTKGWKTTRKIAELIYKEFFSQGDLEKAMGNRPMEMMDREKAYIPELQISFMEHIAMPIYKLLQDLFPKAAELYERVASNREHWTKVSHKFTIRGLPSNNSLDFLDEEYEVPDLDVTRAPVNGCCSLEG
The assay can be described thus: PDE2 occupancy by test compounds, ex-vivo autoradiography with [3H]B-17a. The assay is classed as in vivo, Male Wistar rats. The following applies: sc, 10 mg/kg, route SC (subcutaneous), percentage receptor occupancy, ex-vivo autoradiography, striatum.

Read-outs that look alike come from different tables or passages of the source.

T1 sequence (O00408 whole entry): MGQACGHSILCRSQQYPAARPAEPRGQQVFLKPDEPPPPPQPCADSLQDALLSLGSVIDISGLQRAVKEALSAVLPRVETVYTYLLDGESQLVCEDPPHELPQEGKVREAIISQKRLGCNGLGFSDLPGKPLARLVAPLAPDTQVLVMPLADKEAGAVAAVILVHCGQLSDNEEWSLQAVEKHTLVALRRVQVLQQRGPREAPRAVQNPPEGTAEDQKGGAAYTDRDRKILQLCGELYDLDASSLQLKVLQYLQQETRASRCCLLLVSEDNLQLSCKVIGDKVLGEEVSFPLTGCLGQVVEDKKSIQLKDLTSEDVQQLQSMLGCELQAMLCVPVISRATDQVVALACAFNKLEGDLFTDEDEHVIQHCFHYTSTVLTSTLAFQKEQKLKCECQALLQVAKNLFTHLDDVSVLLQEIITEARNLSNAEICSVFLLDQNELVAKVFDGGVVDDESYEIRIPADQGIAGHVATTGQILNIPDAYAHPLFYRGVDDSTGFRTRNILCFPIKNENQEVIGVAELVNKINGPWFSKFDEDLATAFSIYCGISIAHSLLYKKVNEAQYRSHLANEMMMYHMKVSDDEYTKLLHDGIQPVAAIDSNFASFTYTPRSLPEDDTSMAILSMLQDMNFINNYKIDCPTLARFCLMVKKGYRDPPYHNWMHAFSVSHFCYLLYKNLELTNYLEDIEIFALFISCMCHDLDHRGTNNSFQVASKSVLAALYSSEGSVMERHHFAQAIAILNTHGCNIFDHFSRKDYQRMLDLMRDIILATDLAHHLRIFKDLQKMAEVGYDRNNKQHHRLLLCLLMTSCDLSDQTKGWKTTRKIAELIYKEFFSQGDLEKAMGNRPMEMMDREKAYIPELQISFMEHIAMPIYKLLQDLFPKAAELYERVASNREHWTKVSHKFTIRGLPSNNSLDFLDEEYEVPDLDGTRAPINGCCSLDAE

As to `C[C@@H]1CCN(C(=O)c2ccc3c(ccn3CCF)c2)C[C@H]1c1cc(C(F)F)nc2ncnn12` [Compound 89], the IC50 was 0.229 nM in assay [1] (human recombinant PDE2A, 10 μM cGMP substrate); 0.229 nM in assay [1]; 145 nM in assay [2] (hPDE3B pIC50, read-out: pIC50 (converted)). Besides, the Emax – broadly, the greatest response seen or fitted, relative to the assay's reference – in assay [1] (human recombinant PDE2A) was 104%; in assay [1] it was 104%; in assay [2] (read-out: hPDE3B Emax, read-out: Emax), 96%. For the same compound, on PDE2A, the receptor occupancy at 10 mg/kg was 88%.
